Experimental data published in US6103709A (priority 1998, dated 2000).
“Also recorded” adds a separate entry of the source.

How the values were obtained:
[1] = tested on: rapid responses (VDRmem); test: Antagonist function (summary classification); conditions: Yes/No, Tables 1 and 6
[2] = target: T1, nuclear receptor for 1α,25(OH)2 D3 [VDRnuc] (Gallus gallus, UniProt O42392); test: Relative Competitive Index (steroid competition) assay, nuclear receptor VDRnuc; type: binding, chick; set-up: key to Nuclear 1α,25-D Receptor (RCI): % relative to 1α,25(OH)2D3 binding (RCI = 100%); conditions: for Binding to VDRnuc relative to 1α,25(OH)2 D3 (RCI): 1α,25(OH)2 D3 = 100%, FIG. 8: chick intestine mucosa; for Nuclear 1α,25-D Receptor (RCI): RCI of 1α,25(OH)2 D3 = 100
T1 construct: VDRnuc receptor preparation from chick intestine mucosa; from tissue; host or cells: chick intestinal mucosa
T1 sequence (O42392 1-451): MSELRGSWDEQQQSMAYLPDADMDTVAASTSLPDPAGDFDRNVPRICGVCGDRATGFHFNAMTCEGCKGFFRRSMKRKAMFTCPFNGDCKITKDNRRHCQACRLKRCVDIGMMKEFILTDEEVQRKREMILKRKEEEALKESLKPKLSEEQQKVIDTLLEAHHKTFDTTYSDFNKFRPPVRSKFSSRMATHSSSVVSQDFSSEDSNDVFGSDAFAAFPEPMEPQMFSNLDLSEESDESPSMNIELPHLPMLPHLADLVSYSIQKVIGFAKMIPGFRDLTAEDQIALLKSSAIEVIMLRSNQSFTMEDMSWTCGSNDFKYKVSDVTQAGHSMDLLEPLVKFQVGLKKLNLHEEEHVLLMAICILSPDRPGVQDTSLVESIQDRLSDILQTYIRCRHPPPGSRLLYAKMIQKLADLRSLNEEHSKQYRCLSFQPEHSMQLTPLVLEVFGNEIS
Experimental: The ability of analogs to mediate genomic responses are directly determined by the ability of the analog in question to bind to the nuclear receptor for 1α,25(OH)2 D3 [VDRnuc ]. This ability is detected by the assay measuring Relative Competitive Index (RCI).
The assay is based upon the principles of a steroid competition assay. A fixed amount of [^3 H]1α,25(OH)2 D3 is mixed with increasing amounts of competitive analogs or the natural hormone, 1α,25(OH)2 D3, and incubated with a VDRnuc receptor preparation from chick intestine mucosa.
Ligand Receptor Competition Assay
This example describes a ligand receptor competitive assay used for determination of an analog's relative ability to bind to VDRnuc expressed as relative competitive index (RCI).
The relative affinity of nonradioactive 1α,25(OH)2 D3 and each analog to compete with [^3 H]1α,25(OH)2 D3 for binding to the VDRnuc of NB4 cells was carried out in vitro. The NB4 cells were collected from a fast growing stage and the cellular VDRnuc of 1α,25(OH)2 D3 were extracted from KTED buffer containing 10 mM Tris-HCl, pH 7.4, 300 mM KCl, 1 mM EDTA and 5 mM DTT. After sonication, the cell extract was further centrifuged at 500× g for 10 min. The supernatant was collected for use in a ligand-receptor binding assay.
In this assay, increasing concentrations (10^-10 to 10^-6 M) of nonradioactive 1α,25(OH)2 D3 or the tested analogs were incubated with NB4 cell extracts in the presence of a fixed saturating amount of 1 pmole of [^3 H]1α,25(OH)2 D3. The reciprocal of the percentage of maximal binding of [^3 H]1α,25(OH)2 D3 was then calculated and plotted as a function of the relative analog concentration versus [^3 H]1α,25(OH)2 D3. […] The competitive index value for each analog is then normalized to the competitive index value of the […], thereby generating the value of Relative Competitive Index (RCI) where the RCI for 1α,25(OH)2 D3 is defined as 100%.
The full description of the assay is found in Methods in Enzymology: Vitamins and Co-Enzymes, Vol. 67, 494-500 , Academic Press, NY(1980); Biochem. Biophys. Res. Commun., 91: 827-834 (1979); and Endocrinology, 139(2): 457-465 (1998).

[3] = tested on: intestinal Ca2+ transport in perfused chick duodena (transcaltachia); test: Transcaltachia assay (rapid stimulation of 45Ca2+ transport in perfused duodena); conditions: for Rapid Trans-Caltachia, relative to 1α,25(OH)2 D3: 1α,25(OH)2 D3 = 100; for stimulation of transcaltachia (in words, FIG. 11): perfusion with 300 pM or 650 pM analog, reference 650 pM 1α,25(OH)2 D3, within first four minutes
Experimental: Duodenal loops from normal, vitamin D-replete chicks were lumenally perfused with ^45 Ca^2+ (5 uCi/ml of buffer). To establish basal transport rates, celiac artery of controls were perfused with control medium for the first 20 min. The duodena were then either re-exposed to control medium containing the vehicle ethanol (0.005%, final concentration) through the celiac artery, or vascularly perfused with 300 pM or 650 pM agonist analogs JM or JN or with 650 pM of a control reference compound 1α,25(OH)2 D3. The venous effluent was collected at 2 min intervals for liquid scintillation spectrophotometry of the ^45 Ca^2+. […] Values represent mean ±SEM for n=4 in each group.
The data shown in FIG. 13 are the mean ±SEM from 4-5 duodena. […] Open circles represent the negative control receiving no treatment with 1α,25(OH)2 D3 or analog. […] Data represent the ratio of treated to basal values ±SEM extracted from a time-course plot (as in panel A) at 32 minutes.
This example describes the assay used for testing rapid response transcaltachia described in J. Biol. Chem, 268: 13811-13819 (1993).
White Leghorn cockerels (Hyline International, Lakeview, Calif.) were obtained on the day of hatch and maintained on a vitamin D-supplemented diet (1.0% calcium and 1.0% phosphorus; O. H. Kruse Grain and Milling, Ontario, Calif.) for 5-6 weeks to prepare normal vitamin D3 -replete chicks for use in the transcaltachia studies.
Measurements of ^45 Ca^2+ transport were carried out in perfused chick duodena. Normal vitamin D-replete chicks weighing approximately 500 g were anesthetized with 0.3 ml per 100 g Chloropent (Fort Dodge, Iowa), and the duodenal loop was surgically exposed. The celiac vein and blood vessels branching off from the celiac artery were ligated before cannulation of the celiac artery itself, and vascular perfusion was immediately initiated. Both the celiac artery and vein of the duodena were perfused with modified Grey's balanced salt solution (GBSS) +0.9 mM Ca which was oxygenated with 95% O2 and 5% CO2. A basal transport rate was established by perfusion with control medium for 20 minutes after the intestinal lumen was filled with ^45 Ca^2+. The tissue was then exposed to 1α,25(OH)2 D3 or analogs or reexposed to control medium for an additional 40 minutes. The vascular perfusate was collected at 2 min intervals during the last 10 min of the basal and during the entire treatment period. Duplicate 100 μl aliquots were taken for determination of the ^45 Ca^2+ levels by liquid scintillation spectrometry.

Row | Structure (SMILES) | Antagonist [1] | Binding to VDRnuc relative to 1α,25(OH)2 D3 (RCI) [2] [%] | Nuclear 1α,25-D Receptor (RCI) [2] | further results
1 | C=C1/C(=C\C=C2/CCC[C@]3(C)[C@@H]([C@H](C)Cc4cccc(O)c4)CC[C@@H]23)C[C@@H](O)C[C@@H]1O [DE] | No | 29 | 29 | –
2 | C=C1/C(=C\C=C2/CCC[C@]3(C)[C@@H]([C@H](C)Cc4ccc(O)cc4)CC[C@@H]23)C[C@@H](O)C[C@@H]1O [DF] | No | 5 | 5 | –
3 | C=C1/C(=C\C=C2/CCC[C@]3(C)[C@@H]([C@H](C)Cc4cccc(C(C)(C)O)c4)CC[C@@H]23)C[C@@H](O)C[C@@H]1O [EV] | No | 62 | 62 | –
4 | CC1=C(/C=C\C2=CCC[C@@]3(C)[C@@H]2CC[C@@H]3[C@H](C)CCCC(C)(C)O)C[C@@H](O)C[C@@H]1O [GF] | No | – | 2 | –
5 | C=C1/C(=C\C=C2/CCC[C@]3(C)[C@@H]([C@H](C)CCCC(C)(C)O)CC[C@@H]23)C[C@@H](O)C[C@H]1O [HL] | Yes and blocks or inhibits the action of agonist for rapid responses | – | – | transcaltachia caused by 1α,25(OH)2 D3 in presence of HL ([3]; HL 12 pM in combination with 1α,25(OH)2 D3 300 pM): particularly observable; inhibition of 1α,25(OH)2 D3-stimulated transcaltachia ([3]; HL 60 pM in advance of 300 pM 1α,25(OH)2 D3): clear inhibition of transcaltachia; inhibition of 1α,25(OH)2 D3-stimulated transcaltachia ([3]; HL 400 pM, 1α,25(OH)2 D3 300 pM): clearly inhibited; inhibition of 1α,25(OH)2 D3-stimulated transcaltachia ([3]; HL administered before 1α,25(OH)2 D3 / FIG. 13 overall): almost completely inhibited; also recorded: potent ability of 1β,25(OH)2 D3 (HL) to block or antagonize
6 | C=C1/C(=C\C=C2/CCC[C@]3(C)[C@@H]([C@H](C)C=C=CC(C)(C)O)CC[C@@H]23)C[C@@H](O)C[C@@H]1O [HQ] | No | – | 21 | –
7 | C=C1/C(=C\C=C2/CCC[C@]3(C)[C@@H]([C@H](C)C=C=CC(C)(C)O)CC[C@@H]23)C[C@@H](O)C[C@@H]1O [HR] | No | 52 | 52 | –
8 | C[C@H](CCCC(C)(C)O)[C@H]1CC[C@H]2C3=CC=C4C[C@@H](O)C[C@H](O)[C@]4(C)[C@H]3CC[C@]12C [JM] | No | – | 0.1 | Rapid Trans-Caltachia, relative to 1α,25(OH)2 D3 [3]: 60%; stimulation of transcaltachia (in words, FIG. 11) [3]: comparable or better than the reference compound
9 | C[C@H](CCCC(C)(C)O)[C@H]1CC[C@H]2C3=CC=C4C[C@@H](O)C[C@H](O)[C@@]4(C)[C@@H]3CC[C@]12C [JN] | No | – | 1.8 | Rapid Trans-Caltachia, relative to 1α,25(OH)2 D3 [3]: 105%; stimulation of transcaltachia (in words, FIG. 11) [3]: comparable or better than the reference compound
10 | C[C@H](CCCC(C)(C)O)[C@H]1CC[C@H]2C3=CC=C4C[C@@H](O)C[C@H](O)[C@@]4(C)[C@H]3CC[C@]12C [JO] | No | – | 0.2 | Rapid Trans-Caltachia, relative to 1α,25(OH)2 D3 [3]: 50%
11 | C[C@H](CCCC(C)(C)O)[C@H]1CC[C@H]2C3=CC=C4C[C@@H](O)C[C@H](O)[C@]4(C)[C@@H]3CC[C@]12C [JP] | No | – | 0.3 | Rapid Trans-Caltachia, relative to 1α,25(OH)2 D3 [3]: 60%
12 | CC1=C(C=C=C2CCC[C@]3(C)[C@@H]([C@H](C)CCCC(C)(C)O)CC[C@@H]23)C[C@@H](O)C[C@@H]1O [JV] | No | – | 1.6 | –
13 | CC1=C(C=C=C2CCC[C@]3(C)[C@@H]([C@H](C)CCCC(C)(C)O)CC[C@@H]23)C[C@@H](O)C[C@@H]1O [JW] | No | – | 2.6 | –
14 | C=C1CC[C@H](O)C/C1=C/C=C1\CCC[C@]2(C)[C@@H]([C@H](C)Cc3ccc(O)cc3)CC[C@@H]12 [JX] | No | – | 0.002 | –
15 | C=C1CC[C@H](O)C/C1=C/C=C1\CCC[C@]2(C)[C@@H]([C@H](C)Cc3cccc(O)c3)CC[C@@H]12 [JY] | No | – | 0.001 | –
16 | C=C1/C(=C\C=C2/CCC[C@]3(C)[C@@H]([C@H](C)CCCC(C)(C)O)C[C@@H]4C[C@@]243)C[C@@H](O)C[C@@H]1O [LO] | No | 98 | 98 | VDRnuc binding / nuclear response (in words) ([2]; compared with 1α,25(OH)2 D3): as active in generating nuclear responses as is the 1α,25(OH)2 D3
